According to US20250361234A1 (NICO THERAPEUTICS, INC., priority 2022, published 2025):

Biological target: T1, full-length SARM1 (FL-SARM1) (Homo sapiens, UniProt Q6SZW1)
T1 sequence (Q6SZW1 28-724): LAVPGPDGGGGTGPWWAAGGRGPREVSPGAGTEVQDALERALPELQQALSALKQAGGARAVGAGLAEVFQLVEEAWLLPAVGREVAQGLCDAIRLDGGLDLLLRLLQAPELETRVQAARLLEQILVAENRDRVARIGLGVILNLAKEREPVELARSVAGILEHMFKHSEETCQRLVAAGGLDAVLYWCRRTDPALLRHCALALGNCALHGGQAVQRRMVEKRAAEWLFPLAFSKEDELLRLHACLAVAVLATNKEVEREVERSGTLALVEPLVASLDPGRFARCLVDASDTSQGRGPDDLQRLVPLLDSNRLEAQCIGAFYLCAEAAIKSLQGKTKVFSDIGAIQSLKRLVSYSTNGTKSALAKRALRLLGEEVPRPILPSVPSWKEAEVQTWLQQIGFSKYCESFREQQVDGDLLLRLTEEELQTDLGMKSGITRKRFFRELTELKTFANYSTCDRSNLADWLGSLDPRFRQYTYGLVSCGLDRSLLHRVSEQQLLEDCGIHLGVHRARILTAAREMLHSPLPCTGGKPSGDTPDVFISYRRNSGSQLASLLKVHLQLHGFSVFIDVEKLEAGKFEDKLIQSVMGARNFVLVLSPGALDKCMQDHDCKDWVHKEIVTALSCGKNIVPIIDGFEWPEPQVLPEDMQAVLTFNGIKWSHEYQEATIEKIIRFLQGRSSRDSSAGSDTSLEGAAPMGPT
Experiment: FL-SARM1 cellular lysate assay (NAD/NADH-Glo readout of remaining NAD+)
Conditions: SARM1 cellular lysate from transfected HEK293T cells, NAD+ and NMN, 11 point curve

## COc1cncc(-c2cc(NC(=O)N3[C@@H]4C[C@@H](C)C[C@@]3(c3nnc(C)o3)C4)c(F)cc2C(F)(F)F)c1 (single isomer, unassigned) [Example 123, cis-N-(2-fluoro-5-(5-methoxypyridin-3-yl)-4-(trifluoromethyl)phenyl)-3-methyl-1-(5-methyl-1,3,4-oxadiazol-2-yl)-6-azabicyclo[3.1.1]heptane-6-carboxamide]
Activity (μM)
  IC50: 0.006 µM
Activity
  IC50: 0.0001 to 1 µM

## Cc1nnc([C@]23C[C@H](C)C[C@H](C2)N3C(=O)Nc2cc(-c3cncc(F)c3)c(C)cc2F)o1 (single isomer, unassigned) [Example 124, cis-N-(2-fluoro-5-(5-fluoropyridin-3-yl)-4-methylphenyl)-3-methyl-1-(5-methyl-1,3,4-oxadiazol-2-yl)-6-azabicyclo[3.1.1]heptane-6-carboxamide]
Activity (μM)
  IC50: 5.5 µM
Activity
  IC50: 1 to 10 µM

## Cc1nnc([C@]23C[C@H](C)C[C@H](C2)N3C(=O)Nc2cc(-c3cncc(F)c3)c(C)cc2F)o1 (single isomer, unassigned) [Example 125, cis-N-(2-fluoro-5-(5-fluoropyridin-3-yl)-4-methylphenyl)-3-methyl-1-(5-methyl-1,3,4-oxadiazol-2-yl)-6-azabicyclo[3.1.1]heptane-6-carboxamide]
Activity (μM)
  IC50: 0.025 µM
Activity
  IC50: 0.0001 to 1 µM

## Cc1nnc([C@]23C[C@H](C)C[C@H](C2)N3C(=O)Nc2ccc(C)c(-c3cncc(F)c3)c2)o1 (single isomer, unassigned) [Example 127, cis-N-(3-(5-fluoropyridin-3-yl)-4-methylphenyl)-3-methyl-1-(5-methyl-1,3,4-oxadiazol-2-yl)-6-azabicyclo[3.1.1]heptane-6-carboxamide]
Activity (μM)
  IC50: 0.01 µM
Activity
  IC50: 0.0001 to 1 µM

## Cc1nnc([C@]23C[C@H](C)C[C@H](C2)N3C(=O)Nc2ccc(C)c(-c3cncc(F)c3)c2)o1 (single isomer, unassigned) [Example 128, cis-N-(3-(5-fluoropyridin-3-yl)-4-methylphenyl)-3-methyl-1-(5-methyl-1,3,4-oxadiazol-2-yl)-6-azabicyclo[3.1.1]heptane-6-carboxamide]
Activity (μM)
  IC50: 11.6 µM
Activity
  IC50: > 10 µM

## Cc1nnc([C@]23C[C@H](C)C[C@H](C2)N3C(=O)Nc2cc(-c3cncc(F)c3)c(Cl)cc2F)o1 (single isomer, unassigned) [Example 132, cis-N-(4-chloro-2-fluoro-5-(5-fluoropyridin-3-yl)phenyl)-3-methyl-1-(5-methyl-1,3,4-oxadiazol-2-yl)-6-azabicyclo[3.1.1]heptane-6-carboxamide]
Activity (μM)
  IC50: 0.05 µM
Activity
  IC50: 0.0001 to 1 µM

## Cc1nnc([C@]23C[C@H](C)C[C@H](C2)N3C(=O)Nc2cc(-c3cncc(F)c3)c(Cl)cc2F)o1 (single isomer, unassigned) [Example 133, cis-N-(4-chloro-2-fluoro-5-(5-fluoropyridin-3-yl)phenyl)-3-methyl-1-(5-methyl-1,3,4-oxadiazol-2-yl)-6-azabicyclo[3.1.1]heptane-6-carboxamide]
Activity (μM)
  IC50: 38 µM
Activity
  IC50: > 10 µM

## Cc1nnc([C@@]23C[C@@H](C)C[C@@H](C2)N3C(=O)Nc2ccc(Cl)c(-c3cncc(F)c3)c2)o1 (single isomer, unassigned) [Example 134, cis-N-[4-chloro-3-(5-fluoro-3-pyridinyl)phenyl]-3-methyl-1-(5-methyl-1,3,4-oxadiazol-2-yl)-6-azabicyclo[3.1.1]heptane-6-carboxamide]
Activity (μM)
  IC50: 0.02 µM
Activity
  IC50: 0.0001 to 1 µM

## Cc1nnc([C@]23C[C@H](C)C[C@H](C2)N3C(=O)Nc2cc(-c3cncc(F)c3)c(C(F)(F)F)cc2F)o1 (single isomer, unassigned) [Example 135, cis-N-[2-fluoro-5-(5-fluoro-3-pyridinyl)-4-(trifluoromethyl)phenyl]-3-methyl-1-(5-methyl-1,3,4-oxadiazol-2-yl)-6-azabicyclo[3.1.1]heptane-6-carboxamide]
Activity (μM)
  IC50: 0.03 µM
Activity
  IC50: 0.0001 to 1 µM
